# Columns and labels:
# [1] = tested on: stroma of PE13 tumors; experiment: Microarray gene expression in stroma of treated xenograft tumors, PE13; type: in vivo, mice; conditions: 59R1 vs control
# [2] = target: T1, human Notch2 EGF deletion and point mutants (Homo sapiens, UniProt Q04721, DEL375-412); experiment: FACS epitope mapping with full-length hNotch2 deletion and point mutants; type: binding; conditions: HEK-293 transiently transfected
# T1 construct: several point mutants were created within full-length Notch2; expressed in transfected cells; host or cells: HEK-293, transient, co-transfected with GFP
# Description: (§1) Point mutations were made within EGF10 of Notch2 fusion proteins and binding of 59R1 to each EGF10 mutant was determined by FACS analysis. HEK-293 cells were transiently transfected with the indicated Notch expression plasmid and GFP as a transfection control. GFP positive cells indicated expression of the transgene. The 59R1 Fab antibody was added to the cells at 10 μg/ml and detected by PE-conjugated goat anti-human (Jackson Immunochemicals).
# (§2) FACS analysis of HEK-293 cells transiently transfected with the indicated Notch expression plasmid and GFP as a transfection control. GFP positive cells indicate expression of the transgene. Anti-Notch2 (59M70) was added at 20 μg/ml and detected by PE-conjugated goat anti-mouse (Caltag, #3004-4). 59R1 (IgG2) was added to the cells at 2 μg/ml and detected by PE-conjugated goat anti-human Fc gamma specific (Jackson Immunochemicals). Ligand binding was determined by incubation of the cells with human DLL4 extracellular domain (ECD) fused to rabbit IgG constant region at 5 μg/ml and detected by PE-conjugated donkey anti-rabbit.
# (§3) A comparison analysis of the EGF 10 regions of human Notch1, Notch2, and Notch4 and the EGF 9 region of human Notch3 (the equivalent of EGF 10 in the other Notch receptors) was performed to determine likely binding sites for 59R1 (FIG. 14A). […] Binding to the mutants was determined by FACS analysis (FIGS. 14B and 14C). […]
# [3] = target: T2, human Notch2 EGF deletion and point mutants (Homo sapiens, UniProt Q04721, A388S/H385N/L389N); experiment: as above; type: binding; conditions: FACS on point mutants
# T2 construct: several point mutants were created within full-length Notch2; expressed in transfected cells; host or cells: HEK-293, transient, co-transfected with GFP
# Description: as §1, §2, §3
# [4] = target: T3, human Notch4 (Homo sapiens, UniProt Q99466); experiment: FACS binding to transiently transfected HEK-293 cells, human Notch4
# T3 construct: All Notch constructs were full length; expressed in transfected cells; host or cells: HEK-293, transient, co-transfected with GFP
# Description: The ability of the 59R1 IgG2 antibody to cross-react with other Notch receptors was determined by FACS assay using HEK-293 cells transiently transfected with the human Notch1, Notch2, Notch3 or Notch4 expression plasmid and green fluorescent protein (GFP) as a transfection control. GFP positive cells indicated expression of the transgene. The 59R1 IgG2 was added to the cells at 2 μg/ml and detected by PE-conjugated goat anti-human Fc gamma specific (Jackson Immunochemicals). All Notch constructs were full length.
# [5] = tested on: colon tumor xenograft line OMP-C8; experiment: OMP-C8 colon tumor xenograft growth; type: in vivo, NOD/SCID mice; conditions: established tumors, 15 mg/kg once a week
# Description: The 59R1 IgG2 antibody was also tested in vivo in the breast tumor xenograft lines OMP-B34, OMP-B39, OMP-B44, PE13, and UM-T1, the pancreas tumor xenograft line OMP-PN8, and the colon tumor xenograft line OMP-C8. These tumor xenograft lines were established by adhering to procedures described in Al-Hajj et al., 2003, Proc. Natl. Acad. Sci. USA, 100:3983-3988. Female NOD/SCID immuno-compromised mice 7-10 weeks old were used for the establishment of the breast tumor xenografts and male NOD/SCID mice were used for the OMP-Pn8 and OMP-C8 tumor-models (Harlan, Indianapolis, Ind.). The 59R1 IgG2 antibody was also tested in vivo in a Colo-205 colon tumor xenograft model. Female immunodeficient bg/nu XID mice on a Swiss CD-1 background were used for the Colo-205 xenograft tumor model. In case of the breast cancer models, slow-releasing estrogen pellets (0.36 mg) had to be implanted. Mice were subcutaneously injected on the right flank with 50,000 (OMP-B34, OMP-B39, OMP-B44, PE13, and UM-T1) or 1×10^7 (Colo-205) viable cells, respectively, in a mixture of PBS (without magnesium or calcium) and Matrigel at a 1:1 ratio. […] Antibodies were administered weekly and tumors measured twice weekly. […] Tumor volume was calculated as described Al-Hajj et al. (2003). Data are expressed as the mean and the mean±S.E.M. Group means were compared using Student's two-tailed, unpaired t-test. […]
# [6] = tested on: PE13 breast tumors; experiment: Microarray analysis of PE13 breast tumors treated with taxol or 59R1 plus taxol; type: in vivo, mice; conditions: PE13, 59R1 Taxol vs. Taxol
# Description: In addition to investigating the effects of 59R1 in tumors and the effect on CSC frequency, gene changes were studied following 59R1 treatment in combination with taxol. The experiment was performed in PE13 breast tumors where a decrease in CSC frequency after treatment with 59R1 alone or 59R1 plus taxol treatment had previously been observed (and described herein). Microarray analysis was performed on tumors from the same experiment where limiting dilution analyses of PE13 were carried out for CSC quantification (FIG. 19). Animals bearing PE13 breast tumors were treated three weeks with 59R1 plus taxol, control and taxol prior to harvesting for microarray analysis. Mean differential expression values for taxol vs. control and 59R1 plus taxol vs. taxol treated animals (3 animals per group) were calculated.
# T1 sequence (Q04721 with tags, fused parts or gaps DEL375-412): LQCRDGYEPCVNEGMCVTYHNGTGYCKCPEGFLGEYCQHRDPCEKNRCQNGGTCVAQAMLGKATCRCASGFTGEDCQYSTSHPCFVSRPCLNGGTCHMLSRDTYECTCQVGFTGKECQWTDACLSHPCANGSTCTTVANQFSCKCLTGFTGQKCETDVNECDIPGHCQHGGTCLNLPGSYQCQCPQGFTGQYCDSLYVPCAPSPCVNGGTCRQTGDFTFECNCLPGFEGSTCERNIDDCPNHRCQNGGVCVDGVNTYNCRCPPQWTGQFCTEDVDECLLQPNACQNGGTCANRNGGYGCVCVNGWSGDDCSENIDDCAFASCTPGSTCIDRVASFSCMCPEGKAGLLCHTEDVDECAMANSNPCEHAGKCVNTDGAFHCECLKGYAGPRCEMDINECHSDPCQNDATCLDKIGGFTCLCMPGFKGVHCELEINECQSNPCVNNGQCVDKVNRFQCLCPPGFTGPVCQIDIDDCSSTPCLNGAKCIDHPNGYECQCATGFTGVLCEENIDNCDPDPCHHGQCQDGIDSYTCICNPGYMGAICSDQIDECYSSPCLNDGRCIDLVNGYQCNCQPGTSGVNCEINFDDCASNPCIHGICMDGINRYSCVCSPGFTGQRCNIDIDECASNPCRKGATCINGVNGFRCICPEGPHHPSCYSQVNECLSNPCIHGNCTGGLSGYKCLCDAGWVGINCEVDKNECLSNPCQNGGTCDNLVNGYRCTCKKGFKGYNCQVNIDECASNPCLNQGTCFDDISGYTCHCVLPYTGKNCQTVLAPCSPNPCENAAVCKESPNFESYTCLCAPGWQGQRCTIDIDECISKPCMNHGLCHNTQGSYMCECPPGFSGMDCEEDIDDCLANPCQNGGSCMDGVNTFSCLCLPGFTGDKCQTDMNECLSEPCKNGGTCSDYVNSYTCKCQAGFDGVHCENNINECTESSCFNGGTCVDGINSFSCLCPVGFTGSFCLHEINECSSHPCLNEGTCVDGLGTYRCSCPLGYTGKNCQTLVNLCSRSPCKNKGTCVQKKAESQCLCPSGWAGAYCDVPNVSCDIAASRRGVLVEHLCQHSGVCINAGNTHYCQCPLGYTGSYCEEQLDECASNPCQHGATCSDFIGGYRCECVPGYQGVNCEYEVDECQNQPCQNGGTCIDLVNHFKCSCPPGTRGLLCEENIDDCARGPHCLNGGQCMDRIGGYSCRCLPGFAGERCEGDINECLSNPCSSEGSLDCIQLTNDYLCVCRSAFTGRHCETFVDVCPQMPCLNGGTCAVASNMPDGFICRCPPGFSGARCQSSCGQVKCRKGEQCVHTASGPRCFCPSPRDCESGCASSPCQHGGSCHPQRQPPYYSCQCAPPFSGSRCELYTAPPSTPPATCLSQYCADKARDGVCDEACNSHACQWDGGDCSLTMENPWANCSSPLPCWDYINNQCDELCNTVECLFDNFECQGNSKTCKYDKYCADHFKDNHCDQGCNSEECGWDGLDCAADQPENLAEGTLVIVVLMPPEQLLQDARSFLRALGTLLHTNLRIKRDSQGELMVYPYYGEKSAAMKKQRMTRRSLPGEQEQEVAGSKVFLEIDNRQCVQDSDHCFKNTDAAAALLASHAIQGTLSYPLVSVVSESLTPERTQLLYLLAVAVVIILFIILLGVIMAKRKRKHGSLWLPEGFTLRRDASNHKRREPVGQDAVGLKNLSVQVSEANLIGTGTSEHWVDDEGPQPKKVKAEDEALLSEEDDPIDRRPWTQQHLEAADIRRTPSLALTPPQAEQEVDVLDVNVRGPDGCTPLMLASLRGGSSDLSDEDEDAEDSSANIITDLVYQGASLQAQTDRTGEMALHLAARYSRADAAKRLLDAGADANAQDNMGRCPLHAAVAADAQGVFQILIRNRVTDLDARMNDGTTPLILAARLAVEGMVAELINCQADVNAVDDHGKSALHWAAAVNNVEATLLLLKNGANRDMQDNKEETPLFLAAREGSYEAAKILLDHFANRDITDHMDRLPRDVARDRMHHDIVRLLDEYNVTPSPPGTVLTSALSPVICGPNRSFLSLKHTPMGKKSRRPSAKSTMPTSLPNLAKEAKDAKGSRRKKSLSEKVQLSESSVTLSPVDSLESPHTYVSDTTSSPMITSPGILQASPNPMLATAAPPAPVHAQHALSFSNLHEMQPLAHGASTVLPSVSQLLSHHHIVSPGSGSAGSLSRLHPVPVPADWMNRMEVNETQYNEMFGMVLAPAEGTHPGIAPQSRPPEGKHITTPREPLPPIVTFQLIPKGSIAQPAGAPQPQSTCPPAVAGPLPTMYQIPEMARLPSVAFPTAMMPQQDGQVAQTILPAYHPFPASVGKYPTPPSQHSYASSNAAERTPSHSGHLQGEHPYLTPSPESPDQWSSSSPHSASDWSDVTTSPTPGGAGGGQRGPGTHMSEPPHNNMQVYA
# T3 sequence (Q99466 24-2003): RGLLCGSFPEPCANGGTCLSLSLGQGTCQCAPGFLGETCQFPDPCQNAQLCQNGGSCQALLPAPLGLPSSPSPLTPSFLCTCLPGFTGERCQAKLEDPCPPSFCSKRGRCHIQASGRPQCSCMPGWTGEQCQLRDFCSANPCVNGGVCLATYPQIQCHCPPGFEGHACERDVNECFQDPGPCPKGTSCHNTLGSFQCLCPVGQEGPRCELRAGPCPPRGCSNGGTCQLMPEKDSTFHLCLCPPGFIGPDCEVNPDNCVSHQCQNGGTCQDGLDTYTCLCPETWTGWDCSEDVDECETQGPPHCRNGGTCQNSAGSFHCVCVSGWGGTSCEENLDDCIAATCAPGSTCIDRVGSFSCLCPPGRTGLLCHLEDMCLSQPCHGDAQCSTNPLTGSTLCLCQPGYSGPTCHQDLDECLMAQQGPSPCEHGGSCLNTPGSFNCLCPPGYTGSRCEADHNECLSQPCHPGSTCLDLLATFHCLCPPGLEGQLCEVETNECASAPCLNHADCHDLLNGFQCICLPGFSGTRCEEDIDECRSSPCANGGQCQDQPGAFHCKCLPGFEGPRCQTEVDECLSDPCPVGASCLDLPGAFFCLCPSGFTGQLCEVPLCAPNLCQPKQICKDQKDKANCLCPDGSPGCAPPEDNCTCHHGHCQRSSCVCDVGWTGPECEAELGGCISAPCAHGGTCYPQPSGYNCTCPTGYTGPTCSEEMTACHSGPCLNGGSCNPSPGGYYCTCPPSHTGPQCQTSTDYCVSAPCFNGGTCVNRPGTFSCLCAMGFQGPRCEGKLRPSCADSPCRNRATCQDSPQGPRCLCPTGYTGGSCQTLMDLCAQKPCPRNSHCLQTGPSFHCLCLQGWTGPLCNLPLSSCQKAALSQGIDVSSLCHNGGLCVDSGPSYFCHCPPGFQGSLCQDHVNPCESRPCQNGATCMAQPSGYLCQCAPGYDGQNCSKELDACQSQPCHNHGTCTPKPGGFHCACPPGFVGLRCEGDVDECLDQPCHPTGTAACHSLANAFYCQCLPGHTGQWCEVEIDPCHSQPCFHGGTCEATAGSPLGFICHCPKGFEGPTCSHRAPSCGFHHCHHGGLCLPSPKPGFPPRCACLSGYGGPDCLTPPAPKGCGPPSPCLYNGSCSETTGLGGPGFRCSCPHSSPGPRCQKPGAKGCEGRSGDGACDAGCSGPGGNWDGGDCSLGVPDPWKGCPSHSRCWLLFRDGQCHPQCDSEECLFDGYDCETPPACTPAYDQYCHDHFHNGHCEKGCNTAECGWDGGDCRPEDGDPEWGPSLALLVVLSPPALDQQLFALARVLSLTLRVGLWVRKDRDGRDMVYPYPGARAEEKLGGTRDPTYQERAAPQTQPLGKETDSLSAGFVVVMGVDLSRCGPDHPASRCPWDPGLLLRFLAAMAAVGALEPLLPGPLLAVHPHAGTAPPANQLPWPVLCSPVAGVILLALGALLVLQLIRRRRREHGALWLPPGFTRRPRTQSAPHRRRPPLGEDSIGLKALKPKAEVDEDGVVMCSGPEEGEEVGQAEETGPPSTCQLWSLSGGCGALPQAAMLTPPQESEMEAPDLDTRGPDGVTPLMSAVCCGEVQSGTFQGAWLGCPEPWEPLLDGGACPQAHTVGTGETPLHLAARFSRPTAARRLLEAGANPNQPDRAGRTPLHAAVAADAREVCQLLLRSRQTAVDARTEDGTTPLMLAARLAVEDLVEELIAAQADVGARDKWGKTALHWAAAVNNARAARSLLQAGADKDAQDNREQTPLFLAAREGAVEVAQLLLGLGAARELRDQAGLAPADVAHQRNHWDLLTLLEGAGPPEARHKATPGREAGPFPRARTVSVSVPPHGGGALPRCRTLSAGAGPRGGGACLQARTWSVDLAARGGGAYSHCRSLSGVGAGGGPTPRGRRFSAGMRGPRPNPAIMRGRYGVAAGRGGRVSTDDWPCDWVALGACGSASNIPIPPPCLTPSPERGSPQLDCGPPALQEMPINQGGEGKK
substance,measurement,setting,value
59R1: human IgG2 antibody binding Notch2 and Notch3; heavy and light chain SEQ ID NO:16 and 18; ATCC PTA-9547,Fold 1416286_at (Rgs4),[1],−1.83
same,Fold 1417466_at (Rgs5),[1],−4.03
same,Fold 1417714_x_at (Hba-al/Hba-a2),[1],−1.92
same,Fold 1418829_a_at (Eno2),[1],1.54
same,Fold 1419302_at (Heyl),[1],−1.77
same,Fold 1420872_at (Gucy1b3),[1],−3.06
same,Fold 1420941_at (Rgs5),[1],−2.99
same,Fold 1420942_s_at (Rgs5),[1],−4.23
same,Fold 1421964_at (Notch3),[1],−1.91
same,Fold 1422789_at (Aldh1a2),[1],−2.17
same,Fold 1428361_x_at (Hba-al/Hba-a2),[1],−1.73
same,Fold 1434141_at (Gucy1a3),[1],−4.18
same,Fold 1449280_at (Esm1),[1],1.56
same,Fold 1449632_s_at (Fkbp10),[1],−1.63
same,Fold 1451501_a_at (Ghr),[1],−1.66
same,Fold 1452590_a_at (Plac9),[1],−1.62
same,Fold 1459713_s_at (Tmem16a),[1],−7.28
same,FACS binding to hNotch2 in the absence of EGF 10 (missing amino acids 375-412),[2],does not
same,amino acids necessary for binding to hNotch 2,[3],"histidine 385, alanine 388, and leucine 389"
same,binding to full-length human Notch4 (FACS),[4],does not bind significantly
same,C8 tumor growth relative to LZ1 control antibody,[5],inhibit tumor growth
same,Fold BMPR1B,[6],−4.3
same,Fold BNIP3,[6],1.8
same,Fold EGLN3,[6],11.9
same,Fold HSPB6,[6],−1.8
same,Fold ITGAM,[6],−2.5
same,Fold LHX8,[6],−4.4
same,Fold NDRG1,[6],6.4
same,Fold RARRES1,[6],−2.2
same,Fold RARRES3,[6],−1.7
same,Fold RBP2,[6],−2.2
same,Fold XAF1,[6],−1.5
